Experimental data: US20260130894A1, “COMPOSITION COMPRISING ISOQUINOLINE DERIVATIVE AS ACTIVE INGREDIENT FOR PREVENTION OR TREATMENT OF PARKINSON'S DISEASE” (ALTMEDICAL CO., LTD., priority 2022, published 2026)

Key:
[1] = system: mitochondrial membrane potential; test: Mitochondrial membrane potential, TMRM assay; type: cell-based; details: CD1-012 10 μM or 15 μM, CCCP 10 μM, 24 hours (FIG. 6)
Protocol: (§1) It was confirmed whether the isoquinoline derivative according to the present invention induces mitochondrial dysfunction, similar to CCCP. To this end, the CD1-012 (10 μM or 15 μM) and CCCP (10 μM) were treated for 24 hours, and the mitochondrial membrane potential and mitochondrial reactive oxygen species (ROS) levels in each sample were analyzed. Mitochondrial membrane potential was analyzed using the TMRM (tetramethylrhodamine methyl ester) assay, and mitochondrial ROS levels were analyzed using the MitoSOX assay.

[2] = system: mitochondrial reactive oxygen species (ROS); test: Mitochondrial reactive oxygen species, MitoSOX assay; type: cell-based; details: CD1-012 10 μM or 15 μM, CCCP 10 μM, 24 hours (FIG. 6)
Protocol: as §1

[3] = system: BEAS-2B cell line, in which PINK1 was knocked down; test: Mitophagy activity in PINK1 knockdown (shPINK1) BEAS-2B cells (FACS); type: cell-based, human; details: CCCP 10 μM, CD1-012 15 μM, 18 hours (FIG. 7)
Source text: In this example, it was confirmed whether the mitophagy activation function of the isoquinoline derivative according to the present invention is dependent on the PINK1-Parkin pathway. […]
In the following example, it was confirmed whether the novel isoquinoline derivative according to the present invention has a therapeutic effect of preventing or improving Parkinson's disease. Most of all, it was confirmed whether the treatment with the isoquinoline derivative improves mitochondrial dysfunction of a Parkinson's disease cell model. To this end, first, the induction of mitophagy by CD1-012 was verified. […] In addition, to analyze whether the mitophagy-promoting activity of CD1-012 is dependent on PINK1, PINK1 expression was inhibited (using shPNIK1) in BEAS-2B cells, which is a human normal lung cell line expressing a mitochondrial fluorescent protein, and mitophagy activity was analyzed by flow cytometry (FACS).

BEAS-2B cell line = test: Mitophagy activity in BEAS-2B cells expressing mt-Keima (FACS, confocal microscope, mito-YFP); type: cell-based, human; details: BEAS-2B mt-Keima (FIG. 5)
Protocol: To analyze the mitophagy-promoting activity effect of the CD1-012 synthesized in the Example 1, the BEAS-2B cell line, which is a human normal lung cell line, was induced to express the mt-Keima fluorescent protein. Following this, the CD1-012 (15 μM) and the compound of Comparative Example 1, CCCP (10 μM), were treated for 24 hours. After the treatment, the mitophagy activity of each sample was measured, and the results were represented in FIGS. 1A to 1C.
Specifically, FIG. 1A represents the analysis results using flow cytometry (FACS) (treatment of CD1-012 at 15 μM for 24 hours), FIG. 1B represents the analysis results using a confocal microscope (treatment of CD1-012 at 15 μM for 18 hours), and FIG. 1C represents the measurement results of the quantitative changes in the mitochondria using a fluorescent protein, mito-YFP, which includes a targeting sequence to transport protein to the mitochondria (treatment of CD1-012 at 20 μM for 24 hours).
It was confirmed whether CD1-012 synthesized in Example 1 promotes mitophagy activity in a concentration- and time-dependent manner. To this end, the CD1-012 was treated at various concentrations or at a fixed concentration (15 μM) for different treatment durations in the BEAS-2B cell line expressing mt-Keima, and mitophagy activity was measured using a flow cytometer.
It was confirmed whether CD1-012 synthesized in Example 1 specifically increases only mitophagy activity. To this end, the BEAS-2B cell line expressing mt-Keima was treated with CD1-012 (15 μM) or Comparative Example 1 (CCCP, 10 μM) for 18 hours, and mitophagy activity was analyzed using a confocal microscope. Additionally, to measure autophagy activity, the BEAS-2B cell line expressing Keima fluorescent protein was incubated in Hanks' balanced salt solution (HBSS) for 3 hours to induce a starvation condition (starv.), and the results were compared with samples treated with CD1-012 (15 μM) for 18 hours using a confocal microscope.
To this end, the human normal lung cell line BEAS-2B, expressing mt-Keima fluorescent protein, was treated with CD1-012, Comparative Example 2 (palmatine), or Comparative Example 3 (berberine) at various concentrations, and the mitophagy-inducing activity of each sample was compared.

| Structure (SMILES) | mitochondrial membrane potential [1] | mitochondrial ROS levels [2] | mitophagy activation in PINK1 knockdown cell line (shPINK1) compared to control cell line (shNT) [3] | concentration at which mitophagy activity reached its maximum (BEAS-2B cell line) [µM] |
| --- | --- | --- | --- | --- |
| N#CC(C#N)=NNc1cccc(Cl)c1 [CCCP, Carbonyl cyanide 3-chlorophenylhydrazone, reference compound] | significantly reduced | significantly increased | significantly decreased | – |
| COc1cc2c(cc1OC)-c1cc3ccc(OC)c(OC)c3c[n+]1CC2 [palmatine, Palmatine, reference compound] | – | – | – | 400 |
| COc1ccc2cc3[n+](cc2c1OC)CCc1cc2c(cc1-3)OCO2 [berberine, Berberine, reference compound] | – | – | – | 80 |
